Consider 13 compounds from ChEMBL document CHEMBL1240451, “Studies on chemical modification and biology of a natural product, gambogic acid (II): Synthesis and bioevaluation of gambogellic acid and its derivatives from gambogic acid as antitumor agents” (Eur J Med Chem, 2010).

Calls of active or inactive are those of the source. The calls are words filed in the database; no cut-off is given here.

The subject of assay [1] is A549. Kind of assay: Ratio of compound IC50 to gambogic acid IC50 for human A549 cells. It is filed as functional.
The test system of assay [2] is Bel-7402. In words: Cytotoxicity against human Bel7402 cells after 48 hrs by MTT assay. The assay is classed as functional, cell-based. The note with it: Bel-7402, 48 h.
The test system of assay [3] is A549. Kind of assay: cells. The note with it: Homo sapiens, A549, 48 h.
Description: Cytotoxicity against human A549 cells after 48 hrs by MTT assay
Assay [4] concerns BGC-823. In words: Cytotoxicity against human BGC823 cells after 48 hrs by MTT assay. The assay is classed as functional, cell-based. The note with it: BGC-823, 48 h.
Assay [5] concerns HT-29. Kind of assay: Cytotoxicity against human HT-29 cells after 48 hrs by MTT assay. The assay is classed as functional, cell-based. As to conditions: HT-29, 48 h. For orientation: Formazan colour is commonly taken as a measure of viable cells.
Assay [6] concerns HT-29. In words: Ratio of compound IC50 to gambogic acid IC50 for human HT-29 cells. The assay is classed as functional.
The test system of assay [7] is BGC-823. In words: Ratio of compound IC50 to gambogic acid IC50 for human BGC823 cells. The assay is classed as functional.
For assay [8], the system named is BGC-823. In words: Induction of apoptosis human BGC823 cells assessed as increase of apoptotic cells after 20 hrs using Annexin-V/PI double-staining by flow cytometry (reference value: 3.9%). It is filed as functional, cell-based. On the technique in general: Flow cytometry measures light scatter and fluorescence of single cells or particles in a stream.
The subject of assay [9] is BGC-823. In words: Induction of apoptosis human BGC823 cells assessed as increase of apoptotic cells at 8 uM after 20 hrs using Annexin-V/PI double-staining by flow cytometry (reference value: 3.9%). It is filed as functional.
For assay [10], the system named is BGC-823. Kind of assay: Induction of apoptosis human BGC823 cells assessed as morphological changes at up to 8 uM after 48 hrs using Annexin-V/PI double-staining by light microscopic analysis. It is filed as functional, cell-based.
The subject of assay [11] is Bel-7402. In words: Ratio of compound IC50 to gambogic acid IC50 for human Bel7402 cells. The assay is classed as functional.
For assay [12], the system named is BGC-823. In words: Induction of apoptosis human BGC823 cells assessed as increase of apoptotic cells at 4 uM after 20 hrs using Annexin-V/PI double-staining by flow cytometry (reference value: 3.9%). It is filed as functional.
The subject of assay [13] is BGC-823. Kind of assay: Induction of apoptosis human BGC823 cells assessed as nuclear fragmentation at up to 8 uM after 20 hrs using Annexin-V/PI double-staining by light microscopic analysis. It is filed as functional, cell-based.
The subject of assay [14] is BGC-823. Kind of assay: Induction of apoptosis human BGC823 cells assessed as increase of apoptotic cells at 2 uM after 20 hrs using Annexin-V/PI double-staining by flow cytometry (reference value: 3.9%). It is filed as functional.

What is called IC50 is the concentration that gives 50% inhibition. Low readings indicate higher potency, high ones lower potency. Take `C=C(C)C1CC[C@]2(C)CC1c1c(O)c3c(c(CC=C(C)C)c1O2)O[C@]12C(=C[C@@H]4C[C@@H]1C(C)(C)O[C@@]2(C/C=C(/C)C(=O)O)C4=O)C3=O` (some centres undefined) [GAMBOGELLIC ACID]: the “Ratio IC50” value with A549 [1] is listed as 2. Besides, the IC50 with Bel-7402 [2] stood at 6480 nM; with A549 [3], 1120 nM; with BGC-823 [4], 460 nM; with HT-29 [5] it was 1340 nM.
With `C=C(C)C1CC[C@]2(C)CC1c1c(O)c3c(c(C/C=C(\C)CO)c1O2)O[C@]12C(=C[C@@H]4C[C@@H]1C(C)(C)O[C@@]2(C/C=C(/C)C(=O)OC)C4=O)C3=O` (some centres undefined), the figures for the “Ratio IC50” value with HT-29 [6], with A549 [1] and with BGC-823 [7] were 14, 2 and 2, respectively. The half-inhibitory concentration (IC50) with Bel-7402 [2] stood at 13000 nM; with A549 [3], 980 nM; in the assay with BGC-823 [4] it was 620 nM; in the assay with HT-29 [5], 240 nM.
For the compound `C=C(C)C1CC[C@]2(C)CC1c1c(O)c3c(c(CCC(C)(C)Cl)c1O2)O[C@]12C(=C[C@@H]4C[C@@H]1C(C)(C)O[C@@]2(C/C=C(/C)C(=O)O)C4=O)C3=O` (some centres undefined), the “Ratio IC50” value in the assay on A549 [1] came to 2. For the same compound, the IC50 was 18100 nM with Bel-7402 [2], 1240 nM in the assay with A549 [3], 4000 nM in the assay with BGC-823 [4] and 1640 nM with HT-29 [5].
As for `CC(C)=CCC[C@]1(C)C=Cc2c(O)c3c(c(CC=C(C)C)c2O1)O[C@]12C(=C[C@@H]4C[C@H]1C(C)(C)O[C@@]2(C/C=C(/C)C(=O)O)C4=O)C3=O` [GAMBOGIC ACID], the IC50 in the assay on Bel-7402 [2] worked out at 2080 nM; in the assay on A549 [3], 3650 nM; in the assay with BGC-823 [4] it was 2830 nM; in the assay on HT-29 [5], 3520 nM.
With `COC(=O)/C(C)=C\C[C@@]12OC(C)(C)[C@H]3C[C@@H](C=C4C(=O)c5c(O)c6c(c(CC7OC7(C)C)c5O[C@]431)O[C@]1(C)CCC(=C(C)C)C6C1)C2=O` (some centres undefined), the “Ratio IC50” value in the assay with HT-29 [6] was 14. The IC50 in the assay with Bel-7402 [2] was determined as 8100 nM; with A549 [3], 2340 nM; in the assay on BGC-823 [4], 2530 nM; in the assay on HT-29 [5], 120 nM.
In the case of `C/C(=C/C[C@@]12OC(C)(C)[C@H]3C[C@@H](C=C4C(=O)c5c(O)c6c(c(CCC(C)(C)Cl)c5O[C@]431)O[C@]1(C)CC(=O)C(C(C)C)C6C1)C2=O)C(=O)O` (some centres undefined), the IC50 with Bel-7402 [2] turned out to be 4120 nM; in the assay with A549 [3], 27600 nM; in the assay with BGC-823 [4] it was 2930 nM; in the assay with HT-29 [5] it was 5600 nM.
The matching figures for `C=C(C)C1CC[C@]2(C)CC1c1c(O)c3c(c(CCC(C)(C)Cl)c1O2)O[C@]12[C@@H]4C[C@H](C(=O)[C@]1(C/C=C(/C)C(=O)O)OC4(C)C)C(O)C2(O)C3=O` (some centres undefined): above 100000 nM, above 100000 nM, above 100000 nM and above 100000 nM.
In the case of `C/C(=C/C[C@@]12OC(C)(C)[C@H]3C[C@@H](C=C4C(=O)c5c(O)c6c(c(CCC(C)(C)Cl)c5O[C@]431)O[C@]1(C)CCC(C3(C)CO3)C6C1)C2=O)C(=O)O` (some centres undefined), the Activity result in the assay with BGC-823 [8] was “Dose-dependent effect”; in the assay with BGC-823 [9], 25.7%; in the assay on BGC-823 [12], 6.2%; in the assay on BGC-823 [14], 4.2%. Besides, the IC50 with Bel-7402 [2] came out at 440 nM; in the assay on A549 [3], 3180 nM; in the assay on BGC-823 [4], 280 nM; in the assay with HT-29 [5], 1330 nM. The result in the assay with BGC-823 [10] and with BGC-823 [13] was Active. The “Ratio IC50” value in the assay with Bel-7402 [11] is 4.7.
As for `COC(=O)/C(C)=C\C[C@@]12OC(C)(C)[C@H]3C[C@@H](C=C4C(=O)c5c(O)c6c(c(CC=C(C)C)c5O[C@]431)O[C@]1(C)CCC(C3(C)CO3)C6C1)C2=O` (some centres undefined), the “Ratio IC50” value in the assay with HT-29 [6] was 4; in the assay with BGC-823 [7], 2. The IC50 with Bel-7402 [2] stood at 4380 nM; in the assay on A549 [3] it was 2420 nM; in the assay on BGC-823 [4] it was 920 nM; in the assay on HT-29 [5] it was 490 nM.
For the compound `COC(=O)/C(C)=C\C[C@@]12OC(C)(C)[C@H]3C[C@@H](C=C4C(=O)c5c(O)c6c(c(C/C=C(\C)CO)c5O[C@]431)O[C@]1(C)CCC(=C(C)C)C6C1)C2=O`, the “Ratio IC50” value in the assay with HT-29 [6] was 14; in the assay with A549 [1] it was 2; in the assay with BGC-823 [7], 2. Besides, the IC50 in the assay with Bel-7402 [2] was determined as 11000 nM; in the assay with A549 [3] it was 1560 nM; with BGC-823 [4] it was 1420 nM; in the assay with HT-29 [5] it was 140 nM.
As to `C=C(C)C1CC[C@]2(C)CC1c1c(O)c3c(c(CC=C(C)C)c1O2)O[C@]12C(=C[C@@H]4C[C@@H]1C(C)(C)O[C@@]2(C/C=C(/C)C(=O)OC)C4=O)C3=O` (some centres undefined), the results for the “Ratio IC50” value with HT-29 [6] and in the assay on A549 [1] were 4 and 2, respectively. In addition, the IC50 in the assay on Bel-7402 [2] came to 4560 nM; in the assay with A549 [3] it was 1790 nM; with BGC-823 [4], 2610 nM; in the assay with HT-29 [5], 810 nM.
As for `C=C(C)C1CC[C@]2(C)CC1c1c(O)c3c(c(CCC(C)(C)Cl)c1O2)O[C@]12C(=C[C@@H]4C[C@@H]1C(C)(C)O[C@@]2(C/C=C(/C)C(=O)OC)C4=O)C3=O` (some centres undefined), the IC50 came out at 2630 nM in the assay with Bel-7402 [2], 4630 nM in the assay with A549 [3], 1980 nM in the assay on BGC-823 [4] and 4550 nM with HT-29 [5]. Besides, the “Ratio IC50” value in the assay on BGC-823 [7] stood at 2.
Regarding `COC(=O)/C(C)=C\C[C@@]12OC(C)(C)[C@H]3C[C@@H](C=C4C(=O)c5c(O)c6c(c(CC=C(C)C)c5O[C@]431)O[C@]1(C)CCC(=C(C)C)C6C1)C2=O`, the “Ratio IC50” value with HT-29 [6] was found to be 4. For the same compound, the IC50 with Bel-7402 [2] amounted to 7860 nM; in the assay on A549 [3], 5550 nM; with BGC-823 [4], 6620 nM; in the assay on HT-29 [5], 540 nM.
